Experimental data from patent US20190375786A1, “STABLE PEPTIDES AND METHODS OF USE THEREOF” (Fred Hutchinson Cancer Research Center, priority 2016, published 2019).
Positions of bridges follow the written chain, without caps; N, C: chain ends. Residues, ends and D or L forms follow the SMILES beside them.

What was measured:
trypsin = trypsin (Sus scrofa, UniProt P00761); test: Trypsin digestion resistance of soluble peptide, RP-HPLC; type: in vitro ADME, porcine; set-up: purchased Sigma Aldrich 6567; conditions: 500 U/ml trypsin, 30 minutes at 37.5° C.; HPLC peak vs untreated peptide
Procedure: (§1) Peptides were first suspended in 500 μl of ddH2O to a stock concentration of 2 mg/ml. Reactions were prepared by adding 12.5 μg of peptide from the stock solution to a 10 mM solution of DTT in PBS and allowed to incubate at room temperature for 30 minutes. Other reactions were prepared with 12.5 μg peptide and 500 U/ml trypsin in 25 mM Tris/75 mM NaCl buffer (pH 7.0) and incubated for 30 minutes at 37.5° C. These reactions were then quenched with 5 μg of soybean trypsin inhibitor (I) and, in some cases, 10 mM dithiothreitol (DTT). Reversed phase HPLC (RP-HPLC) was run on samples using an Agilent 1260 HPLC equipped with a C-18 Poroshell 120B column. Sample were analyzed by a gradient method with a mobile phase of Solvent A (water with 0.1% TFA) and Solvent B (acetonitrile with 0.1% TFA). Solvent B was ramped up from 5%-45% of the mobile phase over a period of 10 minutes. For testing pepsin digestion resistance, reactions were prepared with 12.5 μg peptide with or without 500 U/ml pepsin in simulated gastric fluid (SGF; pH 1.05; […] sodium chloride in 0.7% (v/v) hydrochloric acid) and were incubated for 30 minutes at 37.5° C. For testing temperature resistance, peptides were incubated at 70° C., 75° C., or 100° C. for one hour in 0.5 mM PBS, pelleted, and then the supernatant was analyzed by HPLC.
(§2) This example illustrates peptide stability in biological conditions including in the presence of reducing agents, proteases, oxidative conditions, acidic conditions, and simulated gastric fluids. […] Various peptides were suspended in 500 μl of ddH2O at a stock concentration of 2 mg/ml. This was then diluted in accord with the reaction conditions to prevent adverse buffering effects. Reactions were prepared with 12.5 μg peptide dissolved in solution and, in some samples, additionally suspended in a 10 mM solution of DTT, simulated gastric fluid (pH 1.05; […] sodium chloride in 0.7% (v/v) hydrochloric acid), 500 U pepsin (5000 U/ml pepsin), 50 U trypsin (500 U/ml trypsin) with 1 mg/ml inhibitor in PBS, or a combination of any of these conditions. All protease reactions were incubated for 30 min at room temperature and then quenched. Pepsin reactions were quenched by adding Tris base to a final concentration of 0.075 M. Trypsin reactions were quenched by adding excess soybean trypsin inhibitor. RP-HPLC was then run on samples using an Agilent 1260 HPLC equipped with a C-18 Poroshell 120B column. Sample were analyzed by a gradient method with a mobile phase of Solvent A (water with 0.1% TFA) and Solvent B (acetonitrile with 0.1% TFA). Solvent B was ramped up from 5%-45% of the mobile phase over a period of 10 minutes.
Soluble peptides were exposed to 500 U/mL porcine trypsin and analyzed by HPLC. Protease resistance was also assessed by using SDPR-displaying peptides. The SDPR vector is similar to the a surface display GFP FasL(SDGF) vector, but contains a C-terminal 6×His tag (SEQ ID NO: 180) and all basic or aromatic amino acid residues on the stalk removed. Protease resistance is then tested by incubation of cells displaying peptides with trypsin or chymotrypsin, followed by incubation in 10 mM DTT, and staining with an anti-6×His fluorophore-labeled antibody (“6×His” disclosed as SEQ ID NO: 180). If peptides are uncleaved, they retain the His tag and are stained with by the antibody. A control protease-sensitive knottin peptide (SK) was used as a positive control. Cells displaying peptides were treated with up to 40 μg/ml trypsin or chymotrypsin.
FIG. 21 illustrates high performance liquid chromatograph (HPLC) traces of peptides after trypsin digestion. […] The assay was carried out by reconstituting 1 mg porcine trypsin (Sigma Aldrich 6567) in 1 mL of 1 mM HCl. Trypsin was provided at a concentration of 10,000 u/mL and thus, 5 μl of stock solution was equivalent to using 50 U of trypsin in each reaction. Soybean trypsin inhibitor (SA T9128) was prepared at 1 mg/mL of in H2O. […]

pepsin = pepsin (Sus scrofa, UniProt P00791); test: Pepsin digestion resistance in simulated gastric fluid, RP-HPLC; type: in vitro ADME, porcine; set-up: purchased Sigma Aldrich P7012; conditions: 500 U/ml pepsin in SGF pH 1.05, 30 minutes at 37.5° C.; HPLC peak vs untreated peptide
Procedure: Peptides were first suspended in 500 ul of ddH2O to a stock concentration of 2 mg/ml. Reactions were prepared by adding 12.5 ug of peptide from the stock solution to a 10 mM solution of DTT in PBS and allowed to incubate at room temperature for 30 minutes. Other reactions were prepared with 12.5 μg peptide with or without 500 U/ml pepsin in simulated gastric fluid (SGF; pH 1.05; […] sodium chloride in 0.7% (v/v) hydrochloric acid) and were incubated for 30 minutes at 37.5° C. Some reactions were quenched with a final concentration of 100 mM Tris base and 10 mM dithiothreitol (DTT). Some reactions were performed in all of the above components, including simulated gastric fluid, pepsin, Tris, and DTT (referred to as SPTD). Reversed phase HPLC (RP-HPLC) was run on samples using an Agilent 1260 HPLC equipped with a C-18 Poroshell 120B column. Sample were analyzed by a gradient method with a mobile phase of Solvent A (water with 0.1% TFA) and Solvent B (acetonitrile with 0.1% TFA). Solvent B was ramped up from 5%-45% of the mobile phase over a period of 10 minutes. Peptides were detected at an absorbance of 214 nm and 280 nm.
as §1, §2
FIG. 20 illustrates high performance liquid chromatograph (HPLC) traces of peptides after pepsin digestion. […]

trypsin, sequence (P00761 9-231): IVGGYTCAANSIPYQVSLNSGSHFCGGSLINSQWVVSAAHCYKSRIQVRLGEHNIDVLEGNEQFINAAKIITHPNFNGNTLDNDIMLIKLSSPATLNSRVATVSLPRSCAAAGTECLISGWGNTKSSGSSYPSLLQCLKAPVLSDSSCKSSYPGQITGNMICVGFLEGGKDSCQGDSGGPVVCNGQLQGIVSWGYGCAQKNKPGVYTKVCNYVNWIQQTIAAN
pepsin, sequence (P00791 60-385): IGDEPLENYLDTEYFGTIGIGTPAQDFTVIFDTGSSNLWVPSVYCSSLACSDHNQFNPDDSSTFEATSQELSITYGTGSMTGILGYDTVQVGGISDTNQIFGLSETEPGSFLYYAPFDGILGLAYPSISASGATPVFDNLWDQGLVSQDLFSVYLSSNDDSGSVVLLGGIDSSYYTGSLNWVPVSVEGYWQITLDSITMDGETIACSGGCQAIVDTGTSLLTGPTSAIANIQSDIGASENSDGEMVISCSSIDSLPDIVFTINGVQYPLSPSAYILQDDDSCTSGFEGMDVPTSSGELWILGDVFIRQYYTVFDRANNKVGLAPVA

SMILES	Resistance to Trypsin (500 U/ml) (trypsin)	Resistance to Pepsin (500 U/ml) (pepsin)
CC[C@H](C)[C@H](NC(=O)[C@H](CC(=O)O)NC(=O)[C@@H](NC(=O)[C@@H]1CCCN1C(=O)[C@H](CCCNC(=N)N)NC(=O)[C@H](CO)NC(=O)CN)[C@@H](C)O)C(=O)N[C@@H](CCCCN)C(=O)N[C@H]1CSSC[C@@H]2NC(=O)[C@H](CCCNC(=N)N)NC(=O)CNC(=O)[C@H](CC(N)=O)NC(=O)[C@H]([C@@H](C)O)NC(=O)[C@H](CCCCN)NC(=O)CNC(=O)[C@H](Cc3ccccc3)NC(=O)[C@H](CCCNC(=N)N)NC(=O)[C@H](CO)NC(=O)[C@H](CCCCN)NC(=O)[C@@H]3CSSC[C@@H](C(=O)N[C@@H](Cc4ccccc4)C(=O)O)NC(=O)[C@H](CC(=O)O)NC(=O)[C@H](CSSC[C@H](NC(=O)[C@H](CCC(N)=O)NC(=O)[C@H](Cc4ccc(O)cc4)NC(=O)[C@H](CO)NC(=O)[C@H](C)NC(=O)[C@H](CO)NC1=O)C(=O)N[C@@H](Cc1ccccc1)C(=O)N1CCC[C@H]1C(=O)N[C@@H](C(C)C)C(=O)N3)NC(=O)[C@H](CC(C)C)NC(=O)CNC(=O)[C@H](CC(N)=O)NC(=O)[C@H](C(C)C)NC2=O [compound 10] (H-GSRPTDIKCSASYQCFPVCKSRFGKTNGRCVNGLCDCF-OH; disulfide 9-30, 15-35, 19-37)	Low (A peptide classified as low indicates that the majority (over 75%) of the HPLC peak of the treated peptide disappeared as compared to the HPLC peak of the untreated peptide)	High (A peptide classified as high indicates that the majority (at least 75%) of the HPLC peak of the treated peptide is still present as compared to the HPLC peak of the untreated peptide)
CSCC[C@@H]1NC(=O)[C@@H]2CSSC[C@H](NC(=O)[C@H](CCCCN)NC(=O)[C@@H](NC(=O)[C@H](CC(=O)O)NC(=O)[C@@H](NC(=O)[C@H](Cc3ccccc3)NC(=O)[C@H](CCC(N)=O)NC(=O)[C@H](CO)NC(=O)CN)[C@@H](C)O)C(C)C)C(=O)N[C@@H]([C@@H](C)O)C(=O)NCC(=O)N[C@@H](CO)C(=O)N[C@@H](CCCCN)C(=O)N[C@@H](CCC(N)=O)C(=O)N[C@H]3CSSC[C@H](NC(=O)[C@H](CCCCN)NC(=O)CNC(=O)[C@H](CC(N)=O)NC1=O)C(=O)N[C@@H](CCCNC(=N)N)C(=O)N[C@H](C(=O)N[C@@H](Cc1ccc(O)cc1)C(=O)N[C@@H](CO)C(=O)O)CSSC[C@H](NC(=O)[C@H](C(C)C)NC(=O)[C@@H]1CCCN1C(=O)[C@H](Cc1c[nH]c4ccccc14)NC3=O)C(=O)N[C@@H](CCCCN)C(=O)N[C@@H](CCC(N)=O)C(=O)N[C@@H](CCSC)C(=O)N[C@@H](Cc1ccccc1)C(=O)NCC(=O)N[C@@H](CCCCN)C(=O)N1CCC[C@H]1C(=O)N[C@@H](CC(N)=O)C(=O)NCC(=O)N[C@@H](CCCCN)C(=O)N2 [compound 12] (H-GSQFTDVKCTGSKQCWPVCKQMFGKPNGKCMNGKCRCYS-OH; disulfide 9-30, 15-35, 19-37)	Moderate (A peptide classified as medium indicates that about half (between 25% and 75%) of the HPLC peak of the treated peptide disappeared as compared to the HPLC peak of the untreated peptide)	High (A peptide classified as high indicates that the majority (at least 75%) of the HPLC peak of the treated peptide is still present as compared to the HPLC peak of the untreated peptide)
CC[C@H](C)[C@@H]1NC(=O)[C@@H]2CSSC[C@@H]3NC(=O)[C@H](CCC(N)=O)NC(=O)[C@H](CO)NC(=O)[C@H]([C@@H](C)O)NC(=O)[C@H](CC(N)=O)NC(=O)[C@H](CO)NC(=O)[C@@H](NC(=O)[C@H](CCCCN)NC(=O)[C@H](CCCCN)NC(=O)[C@H](CC(N)=O)NC(=O)[C@@H](NC(=O)[C@H](CO)NC(=O)[C@@H](NC(=O)[C@H](CCC(N)=O)NC(=O)[C@H](CO)NC(=O)CN)C(C)C)[C@@H](C)O)CSSC[C@H](NC(=O)[C@H](CCCCN)NC(=O)CNC(=O)[C@H](C)NC(=O)[C@H](C)NC(=O)[C@H](C(C)C)NC(=O)CNC(=O)[C@H](C(C)C)NC(=O)[C@H](C(C)C)NC(=O)[C@H](CCCCN)NC(=O)[C@H](CCC(=O)O)NC(=O)[C@H](CSSC[C@@H](C(=O)N[C@@H](Cc4ccc(O)cc4)C(=O)N4CCC[C@H]4C(=O)O)NC1=O)NC(=O)[C@H]([C@@H](C)O)NC(=O)[C@H](CCCCN)NC(=O)[C@H](Cc1ccc(O)cc1)NC3=O)C(=O)N[C@@H](CCSC)C(=O)N[C@@H](CC(N)=O)C(=O)NCC(=O)N[C@@H](CCCCN)C(=O)N2 [compound 18] (H-GSQVSTNKKCSNTSQCYKTCEKVVGVAAGKCMNGKCICYP-OH; disulfide 10-31, 16-36, 20-38)	Low (A peptide classified as low indicates that the majority (over 75%) of the HPLC peak of the treated peptide disappeared as compared to the HPLC peak of the untreated peptide)	High (A peptide classified as high indicates that the majority (at least 75%) of the HPLC peak of the treated peptide is still present as compared to the HPLC peak of the untreated peptide)
CC[C@H](C)[C@H](NC(=O)[C@H](CCCNC(=N)N)NC(=O)[C@@H](NC(=O)[C@H](CO)NC(=O)CN)C(C)C)C(=O)N1CCC[C@H]1C(=O)N[C@H](C(=O)N[C@@H](CO)C(=O)N[C@H]1CSSC[C@@H]2NC(=O)[C@H](CCCCN)NC(=O)CNC(=O)[C@H](Cc3ccccc3)NC(=O)[C@H](CCCNC(=N)N)NC(=O)[C@H](CCSC)NC(=O)CNC(=O)[C@H](C)NC(=O)[C@H](CC(=O)O)NC(=O)[C@H](CCCCN)NC(=O)[C@@H]3CSSC[C@@H](C(=O)N[C@H](C(=O)N4CCC[C@H]4C(=O)N[C@@H](CCCCN)C(=O)O)[C@@H](C)O)NC(=O)[C@H](CC(=O)O)NC(=O)[C@H](CSSC[C@H](NC(=O)[C@H](CCC(N)=O)NC(=O)CNC(=O)[C@H](CO)NC(=O)[C@H](Cc4c[nH]cn4)NC(=O)[C@H](CCCCN)NC1=O)C(=O)N[C@@H](CC(C)C)C(=O)N[C@@H](CCCCN)C(=O)N1CCC[C@H]1C(=O)N3)NC(=O)[C@H](CCCCN)NC(=O)CNC(=O)[C@H](CC(N)=O)NC(=O)[C@H](CCSC)NC2=O)C(C)C [compound 24] (H-GSVRIPVSCKHSGQCLKPCKDAGMRFGKCMNGKCDCTPK-OH; disulfide 9-29, 15-34, 19-36)	Low (A peptide classified as low indicates that the majority (over 75%) of the HPLC peak of the treated peptide disappeared as compared to the HPLC peak of the untreated peptide)	High (A peptide classified as high indicates that the majority (at least 75%) of the HPLC peak of the treated peptide is still present as compared to the HPLC peak of the untreated peptide)
